Legend:
Stress-induced erosion = Stress-induced erosion test (Senay & Levine), anti-ulcer activity; format: in vivo
Protocol: (§1) Anti-ulcer activity was determined by the stress-induced erosion test of Senay & Levine, Proc. Soc. Exp. Biol. Med., 124, 1221-3(1967) and anti-secretory activity by the test of H. Shay, D. Sun and H. Greenstein, Gastroentarology, 1954, 26, 903-13 as exemplified by Beattie et al J. Med. Chem., 20, 714 (1977). […] However, some compounds show activity in tests for anti-hypertensive activity.

[1] = test system: Female rats rendered hypertensive (unilateral nephrectomy, deoxycorticosterone acetate); assay: Anti-hypertensive activity, Procedure B (deoxycorticosterone acetate hypertensive rats, systolic pressure); format: in vivo, rat; details: 50 mg/kg orally, DOCA hypertensive female rats
Protocol: (§2) Some compounds of the invention were tested for anti-hypertensive activity by the following procedures.
Female rats are rendered hypertensive by unilateral nephrectomy and the s.c. implantation of a pellet containing 30 mg of deoxycorticosterone acetate. The drinking water is replaced by normal saline ad lib for the first four weeks following preparation. Blood pressures stabilise at a hypertensive level after 6 weeks. Systolic pressure is measured indirectly before dosing with a test compound using an E and M pneumatic pulse transducer and a Devices MX2 recorder. Groups of 4 rats are dosed orally with suspensions or solutions of the test compound in 0.5% hydroxypropyl-methyl-cellulose 0.9% saline vehicle. Blood pressures are recorded again at 2, 6 and 24 hours and the results, expressed as a percentage of the pre-dose values compared with those of a similar group of rats receiving vehicle alone.

[2] = test system: Anti-secretory (gastric secretion volume); assay: Anti-secretory test (Shay et al); format: in vivo
Protocol: as §1

[3] = test system: male spontaneously hypertensive rats; assay: Anti-hypertensive activity, Procedure A (spontaneously hypertensive rats, systolic pressure); format: in vivo, rat
Protocol: as §2
Systolic pressure of male spontaneously hypertensive rats is measured by an indirect technique using the Decker Caudal Plethylsmograph or other appropriate sensor. Groups usually consist of 4 rats. Drugs are usually administered orally. Pressures are usually read prior to drug administration and at 1.5, 4 and 24 hours thereafter. The schedule may be altered depending upon the behaviour of the drug.

| SMILES | inhibition in vivo at 100 mg/kg (Stress-induced erosion) [%] | Anti-secretory (Shay et al), % change in volume ([2]; Dose 30 mg/kg) [%] | also measured |
| --- | --- | --- | --- |
| Cc1[nH]cnc1CSc1cccc[n+]1C [Example 1, 1-Methyl-2(4-[5-methylimidazolyl]methylthio)pyridinium chloride] | 69 | -65 | Anti-hypertensive activity (Procedure B) [1]: inactive; Anti-secretory (Shay et al), % change in volume ([2]; Dose 10 mg/kg): -43% |
| C[n+]1ccccc1SCc1ccccn1 [Example 2, 1-Methyl-2(2-pyridyl)methylthio)pyridinium chloride] | 50 | -31 |  |
| C[n+]1ccccc1SCc1c[nH]cn1 [Example 3, 1-Methyl-2(4-imidazolylmethylthio)pyridinium chloride] | 67 | -71 | Anti-hypertensive activity (Procedure A) ([3]; 75 mg/kg orally): showed activity |
| Cc1[nH]cnc1CSc1nccn1C [Example 4, 1-Methyl-2(4-[5-methylimidazolyl]methylthio)imidazole] | 83 | -87 | inhibition in vivo at 30 mg/kg (Stress-induced erosion): 58%; Anti-hypertensive activity (Procedure B) [1]: active; Anti-secretory (Shay et al), % change in volume ([2]; Dose 10 mg/kg): -33% |
| C[n+]1ccccc1SCc1cccnc1 [Example 5, 1-Methyl-2-(3-pyridylmethylthio)pyridinium chloride] | 58 | -55 | Anti-hypertensive activity (Procedure A) ([3]; 75 mg/kg orally): showed activity |
| Cc1[nH]cnc1CSc1ccccn1 [Example 6, 2-(4-[5-Methylimidazolyl]methylthio)pyridine] |  |  | inhibition in vivo at 3 mg/kg (Stress-induced erosion; Dose 3 mg/kg): 56%; inhibition in vivo at 10 mg/kg (Stress-induced erosion; Dose 10 mg/kg): 68%; Anti-hypertensive activity (Procedure A) ([3]; 75 mg/kg orally): inactive |
| Cc1[nH]cnc1CSc1ccncc1 [Example 7, 4-(4-[5-Methylimidazolyl]methylthio)pyridine] | 87 | -60 | Anti-hypertensive activity (Procedure B) [1]: inactive |
| c1ccc(SCc2c[nH]cn2)nc1 [Example 8, 2-(4-Imidazolylmethylthio)pyridine] | 79 |  | inhibition in vivo at 30 mg/kg (Stress-induced erosion): 70% |
| C[n+]1ccccc1SCc1ccncc1 [Example 9, 1-Methyl-2-([(4-pyridyl)methyl]thio)pyridinium chloride] |  |  | Anti-hypertensive activity (Procedure A) ([3]; 50 mg/kg orally): showed activity |
| C[n+]1ccccc1SCc1ccc2ccccc2n1 [Example 10, 1-Methyl-2([(2-quinolyl)methyl]thio)pyridinium chloride] |  |  | Anti-hypertensive activity (Procedure A) ([3]; 50 mg/kg orally): showed activity |
| C[n+]1ccccc1SCCN1CCCCC1 [Example 11, 1-Methyl-2-[(2-piperidinoethyl)thio]pyridinium chloride] |  | -35 |  |
